Test: Viscosity, Brookfield RVT Viscometer, Spindle F (Example 6)
Format: physicochemical
Conditions: compared with SCI
Experimental: Compositions of the inventive shampoos can have a viscosity ranging from 120,000 cps to 3,000,000 cps. Viscosity can be measured using suitable viscometer known to those of skill in the art. The preferred viscosity range is 1,000,000 cps-2,000,000 cps using a Brookfield RVT Viscometer, Spindle F at 0.5 rpm for 90 sec, with around 1,500,000 cps being the most preferred.
The viscosity of various combinations of propanediol, SCI and SLMI was measured using a Brookfield RVT Viscometer, Spindle F.

**Q.** Which “Effect of an increase in the percentage of SLMI on viscosity of the shampoo compositions” value does the source give for `CCCCCCCCCCCC(=O)OC(C)CS(=O)(=O)[O-].[Na+]` (stereo not shown) [SLMI, sodium lauroyl methyl isethionate] here?
**A.** significantly increases the viscosity

From patent publication US11406575B2, “Water-free/anhydrous cream shampoo” (Henkel IP & Holding GmbH, priority 2020, dated 2022)
